Source: ChEMBL document CHEMBL3632489, “Inhibitory kinetics of novel 2,3-dihydro-1H-inden-1-one chalcone-like derivatives on mushroom tyrosinase” (Bioorg Med Chem Lett, 2015)
Calls of active or inactive are those of the source. The calls are words filed in the database; no cut-off is given here.

Key:
[1] = target: T1, Tyrosinase (Agaricus bisporus) (UniProt O42713); assay: Competitive inhibition of mushroom tyrosinase diphenolase activity using L-DOPA as substrate at 1.25 to 20 uM by Lineweaver Burk plot analysis
T1 sequence (whole entry): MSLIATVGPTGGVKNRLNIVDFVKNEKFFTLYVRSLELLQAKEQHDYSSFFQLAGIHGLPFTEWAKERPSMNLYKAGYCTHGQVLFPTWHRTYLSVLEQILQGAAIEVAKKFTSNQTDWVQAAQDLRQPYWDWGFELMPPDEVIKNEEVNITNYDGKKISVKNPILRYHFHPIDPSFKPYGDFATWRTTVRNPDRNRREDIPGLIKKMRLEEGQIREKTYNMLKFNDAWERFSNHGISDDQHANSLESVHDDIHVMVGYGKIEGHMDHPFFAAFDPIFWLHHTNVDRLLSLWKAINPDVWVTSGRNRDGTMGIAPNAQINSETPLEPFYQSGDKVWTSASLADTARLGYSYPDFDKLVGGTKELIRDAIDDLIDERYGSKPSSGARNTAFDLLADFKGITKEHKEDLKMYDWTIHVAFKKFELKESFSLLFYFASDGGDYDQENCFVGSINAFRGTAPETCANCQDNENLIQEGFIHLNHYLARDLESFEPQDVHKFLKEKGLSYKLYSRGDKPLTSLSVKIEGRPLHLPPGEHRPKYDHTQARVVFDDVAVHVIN

[2] = target: T1, Tyrosinase (Agaricus bisporus); assay: Reversible inhibition of mushroom tyrosinase diphenolase activity using L-DOPA as substrate at 0.25 to 2.0 uM
Tyrosinase [3] = target: T2, Tyrosinase (Agaricus bisporus, UniProt O42713)
T2 sequence (O42713 whole entry): T1 sequence (whole entry)
Description: Competitive inhibition of mushroom tyrosinase polyphenol oxidase activity using L-DOPA as substrate by Dixon plot analysis

[4] = target: T1, Tyrosinase (Agaricus bisporus); assay: Potency index, ratio of IC50 for kojic acid to IC50 for test compound for inhibition of mushroom tyrosinase diphenolase activity
[5] = target: T1, Tyrosinase (Agaricus bisporus); assay: Inhibition of mushroom tyrosinase diphenolase activity using L-DOPA as substrate
Tyrosinase [6] = target: T2, Tyrosinase; remark: listed apart in the source

Row | SMILES | inhibition [1] | inhibition [2] | Ki (Tyrosinase [3]) | Ratio IC50 [4] | inhibition [5] | IC50 (Tyrosinase [6])
1 | O=C1/C(=C\c2ccc(O)c(O)c2)Cc2ccccc21 | Active | Active | 8.7 µM | 3.35 | Dose-dependent effect | 8.2 µM
2 | O=C1/C(=C\c2ccc(O)cc2O)Cc2ccccc21 | Active | Active | 10.3 µM | 2.23 | Dose-dependent effect | 12.3 µM
